Laboratory results from patent US20240308995A1, “O-GLYCOPROTEIN-2-ACETAMIDO-2-DEOXY-3-D-GLUCOPYRANOSIDASE INHIBITORS” (BIOGEN MA INC., priority 2018, published 2024).
pIC50: −log10 of the molar value.

How the values were obtained:
[1] = target: Recombinant full length human OGA enzyme (Homo sapiens (Human), UniProt O60502); experiment: OGA Enzyme Inhibition Biochemical Assay; conditions: 1 nM OGA, 100 μM 4-MUGlcNAc, pH 6.4
Method: Recombinant full length human OGA enzyme was purchased from Origene. 4-MUGlcNAc substrate was purchased from Sigma. All other reagents were purchased from Sigma or Fisher. Assay buffer consists of the McIlvaine buffer system, pH 6.4 (0.2M Na2HPO4 mixed with 0.1M citric acid) and 0.01% BSA. […] Reactions were incubated for 90 minutes at room temperature and quenched with 40 μl of 3M glycine, pH 10 and read on a Perkin Elmer Envision plate reader (Ex: 355 nm/Em: 460 nm). Compounds were tested with a 10-point dose-response starting from 20 μM with a 4-fold dilution. Data was fit using GraphPad Prism using a 4-parameter fit with variable slope.

[2] = target: OGA (S400 O-GLCNAC), HEK-293T cells transfected with Tau-V5 (Homo sapiens (Human), UniProt O60502); experiment: Cellular OGA-Tau MSD Assay; format: cell-based
Sequence of OGA (S400 O-GLCNAC), HEK-293T cells transfected with Tau-V5 (O60502 whole entry): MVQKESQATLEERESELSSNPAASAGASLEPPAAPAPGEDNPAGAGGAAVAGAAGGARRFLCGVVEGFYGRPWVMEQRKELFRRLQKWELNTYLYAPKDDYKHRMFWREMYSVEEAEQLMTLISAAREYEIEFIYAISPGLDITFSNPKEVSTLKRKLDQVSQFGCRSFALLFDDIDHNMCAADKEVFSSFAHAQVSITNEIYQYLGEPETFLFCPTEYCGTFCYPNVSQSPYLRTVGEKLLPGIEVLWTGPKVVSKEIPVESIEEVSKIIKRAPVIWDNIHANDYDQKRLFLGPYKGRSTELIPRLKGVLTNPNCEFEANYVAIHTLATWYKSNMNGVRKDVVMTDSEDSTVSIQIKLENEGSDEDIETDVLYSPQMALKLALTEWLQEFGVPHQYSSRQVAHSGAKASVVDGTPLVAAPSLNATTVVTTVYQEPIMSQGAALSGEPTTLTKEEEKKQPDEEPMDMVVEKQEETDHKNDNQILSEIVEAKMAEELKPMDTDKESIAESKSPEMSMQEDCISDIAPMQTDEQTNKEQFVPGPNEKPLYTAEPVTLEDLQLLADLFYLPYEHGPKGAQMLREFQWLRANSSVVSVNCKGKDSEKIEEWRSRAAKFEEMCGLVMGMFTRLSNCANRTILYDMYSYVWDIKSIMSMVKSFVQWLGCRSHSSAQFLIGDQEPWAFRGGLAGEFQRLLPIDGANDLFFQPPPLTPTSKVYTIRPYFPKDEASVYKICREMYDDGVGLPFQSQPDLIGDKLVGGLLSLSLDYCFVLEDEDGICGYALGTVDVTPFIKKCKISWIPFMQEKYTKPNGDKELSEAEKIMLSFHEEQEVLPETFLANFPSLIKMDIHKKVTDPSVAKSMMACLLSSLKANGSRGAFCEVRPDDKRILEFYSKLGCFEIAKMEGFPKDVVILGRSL
Method: HEK-293T cells were transfected with […] and Tau-V5 plasmids using Lipofectamine and grown overnight. Next day, the cells were collected and re-plated at 1×10^5 cells per well in 96 well plates. Cells were incubated for 4 hr at 37° C., before compounds were added at 1 uM, with 3-fold dilutions in a 10-point titration. Cell plates were incubated with compounds overnight at 37° C. The next day media was removed from wells by gentle aspiration and 120 ul of 1× Cell Lysis buffer mixed with protease and phosphatase cocktail added to each well. A freeze thaw was performed at -80° C., then mixed before transferring 50 ul to MSD plates coated with V5-tag antibody to capture Tau. MSD Plates were incubated overnight at 4° C., on a plate shaker. The following day, plates were washed and incubated with Tau-[…]-GlcNAc antibody for 2 hr and then developed with rabbit Sulfo-tag antibody. Final read out was carried out on an MSD 600 reader. The data was analyzed using Graph Pad or Genedata, the data was normalized and % activity versus log of compound concentration was plotted. The IC50 values were obtained from a 4 parameter fit.

P-gp (MDR1) = experiment: MDR1-MDCK Efflux Ratio Assay; format: in vitro ADME; conditions: dog, MDCK-MDR1, pH 7.4, MDR1-MDCK cells, 2 hr, pH 7.4; read-out: MDR1-MDCK Efflux Ratio (B-A/A-B)
Method: MDR1-MDCK cell monolayers were grown to confluence on microporous polyester membranes in 96-well Corning insert plates. The permeability assay buffer was Hanks' Balanced Salt Solution containing 10 mM HEPES at pH of 7.4. Loperamide (1 μM) was used as a positive control P-gp substrate. Propranolol and Bestatin (1 μM) were used as high and low permeability comparators, respectively. Test compounds or positive control P-gp substrate/permeability comprators were added to respective apical and basolateral chambers for bidirectional assessment of permeability. Receiver buffer (transport buffer supplemented with 1% bovine serum albumin) was added to respective receiver chambers. MDR1-MDCK cells were incubated with test compounds at 37° C. with 5% CO2 for 2 hr. Samples were collected from the donor chamber at both 0 and 120 minutes, and from the receiver chamber at 120 minutes. Test and control compound concentrations were determined using LC-MS/MS analysis. Each determination was performed in triplicate. The apparent permeability (Papp), efflux ratio and mass balance (percent recovery) were calculated as follows: [formula] where: dCr/dt is the cumulative concentration in the receiver compartment versus time in μM s^−1 Vr is the volume of the receiver compartment in cm^3 Vd is the volume of the donor compartment in cm^3 A is the area of the insert (0.143 cm^2 for 96-well insert) CE is the estimated experimental concentration (Time=0) of the dosing solution Cr^final is the concentration of the receiver at the end of the incubation period Cd^final is the concentration of the donor at the end of the incubation period.

[3] = Rat Liver Microsome Stability Assay; format: in vitro ADME; conditions: rat liver microsomes, 1 uM compound
[4] = HEK-293T cells, Tau-S400-GlcNAc MSD readout

Sequence of Recombinant full length human OGA enzyme (O60502 whole entry): as above

Row | pIC50 [1] | pIC50 [2, 4] | efflux ratio at 2 h (P-gp (MDR1)) | RLM % Qh (%) [3] | pIC50 ([2]; repeated assay, value marked with asterisk (*)) | Structure (SMILES)
1 | > 9.00 | 8.70 | 4.3 | 27% | – | [2H]C([2H])([2H])Oc1cc(O[C@@H]2C[C@H](C)N(Cc3cnc(NC(C)=O)s3)C2)ncn1 (single isomer, unassigned) [Example 1-154]
2 | > 9.00 | 8.70 | 5.2 | 35% | – | [2H]C([2H])([2H])C(=O)Nc1ncc(CN2C[C@H](Oc3cc(OC)ncn3)C[C@@H]2C)s1 (single isomer, unassigned) [Example 1-156]
3 | > 9.00 | 8.52 | 5.2 | 29% | – | [2H]C(c1cnc(NC(C)=O)s1)N1C[C@H](Oc2cc(OC)ncn2)C[C@@H]1C (single isomer, unassigned) [Example 1-158]
4 | > 9.00 | 8.52 | 4.6 | 29% | – | [2H]C([2H])(c1cnc(NC(C)=O)s1)N1C[C@H](Oc2cc(OC)ncn2)C[C@@H]1C (single isomer, unassigned) [Example 1-160]
5 | > 9.00 | 7.72 | 6.2 | 35% | – | [2H]c1nc(NC(C)=O)sc1CN1C[C@H](Oc2cc(OC)ncn2)C[C@@H]1C (single isomer, unassigned) [Example 1-162]
6 | > 9.00 | 8.40 | 5.9 | 30% | – | [2H][C@@]1(Oc2cc(OC)ncn2)C[C@H](C)N(Cc2cnc(NC(C)=O)s2)C1 (single isomer, unassigned) [Example 1-163]
7 | > 9.00 | 8.15 | 3.8 | – | 8.10 | CC(=O)Nc1ncc(CN2C[C@H](Oc3cc(Cl)ncn3)C[C@@H]2C)s1 [Example 1-21, N-(5-(((2S,4R)-4-((6-chloropyrimidin-4-yl)oxy)-2-methylpyrrolidin-1-yl)methyl)thiazol-2-yl)acetamide]
8 | > 9.00 | – | 21.8 | 91% | – | CC(=O)Nc1nc(F)c(CN2C[C@@H](Oc3cc(C)nc(C)c3)CC[C@@H]2C)s1 [Example 1-56, N-(5-(((2S,5S)-5-((2,6-dimethylpyridin-4-yl)oxy)-2-methylpiperidin-1-yl)methyl)-4-fluorothiazol-2-yl)acetamide]
9 | > 9.00 | 8.40 | – | – | – | CC(=O)Nc1ncc(CN2C[C@@H](Oc3cc(C)nc(C)c3)CC[C@@H]2C)s1 [Example 1-66, N-(5-(((2S,5S)-5-((2,6-dimethylpyridin-4-yl)oxy)-2-methylpiperidin-1-yl)methyl)thiazol-2-yl)acetamide]
10 | > 9.00 | 8.52 | – | – | – | CC(=O)Nc1ncc(CN2C[C@H](Oc3cc(C)nc(C)c3)CC[C@@H]2C)s1 [Example 1-67, N-(5-(((2S,5R)-5-((2,6-dimethylpyridin-4-yl)oxy)-2-methylpiperidin-1-yl)methyl)thiazol-2-yl)acetamide]
11 | 8.19 | 7.89 | – | – | – | COc1cncnc1O[C@@H]1C[C@H](C)N(Cc2cnc(NC(C)=O)s2)C1 [Example 1-74]
12 | > 9.00 | 8.00 | – | 58% | – | CC(=O)Nc1ncc(CN2C[C@H](Oc3cc(OCC(F)(F)F)ncn3)C[C@@H]2C)s1 [Example 1-77]
13 | 7.96 | 7.39 | – | – | – | CC(=O)Nc1ncc(CN2C[C@H](Oc3cc(C(F)(F)F)ncn3)C[C@@H]2C)s1 [Example 1-79, N-(5-(((2S,4R)-2-methyl-4-((6-(trifluoromethyl)pyrimidin-4-yl)oxy)pyrrolidin-1-yl)methyl)thiazol-2-yl)acetamide]
14 | 8.08 | – | 7.3 | 74% | – | CC(=O)Nc1ncc(CN2C[C@H](Oc3ncc(C)nc3C)C[C@@H]2C)s1 [Example 1-81, N-(5-(((2S,4R)-4-((3,5-dimethylpyrazin-2-yl)oxy)-2-methylpyrrolidin-1-yl)methyl)thiazol-2-yl)acetamide]
15 | > 9.00 | 9.00 | – | – | – | COc1ccc(O[C@@H]2C[C@H](C)N(Cc3sc(NC(C)=O)nc3F)C2)nn1 [Example 1-84, N-(4-fluoro-5-(((2S,4R)-4-((6-methoxypyridazin-3-yl)oxy)-2-methylpyrrolidin-1-yl)methyl)thiazol-2-yl)acetamide]
16 | > 9.00 | 9.00 | – | – | – | COc1cc(O[C@@H]2C[C@H](C)N(Cc3sc(NC(C)=O)nc3F)C2)ccn1 [Example 1-100, N-(4-fluoro-5-(((2S,4R)-4-((2-methoxypyridin-4-yl)oxy)-2-methylpyrrolidin-1-yl)methyl)thiazol-2-yl)acetamide]
17 | 8.62 | – | 4.6 | 86% | – | CC(=O)Nc1nc(F)c(CN2C[C@H](Oc3ncc(C)nc3C)C[C@@H]2C)s1 [Example 1-106, N-(5-(((2S,4R)-4-((3,5-dimethylpyrazin-2-yl)oxy)-2-methylpyrrolidin-1-yl)methyl)-4-fluorothiazol-2-yl)acetamide]
18 | > 9.00 | 9.00 | – | – | – | CC(=O)Nc1nc(F)c(CN2C[C@H](Oc3ccc(F)nn3)C[C@@H]2C)s1 [Example 1-111, N-(4-fluoro-5-(((2S,4R)-4-((6-fluoropyridazin-3-yl)oxy)-2-methylpyrrolidin-1-yl)methyl)thiazol-2-yl)acetamide]
19 | 8.85 | – | 1 | 54% | – | CC(=O)Nc1ncc(CN2C[C@H](Oc3cc(OC4CN(C)C4)ncn3)C[C@@H]2C)s1 [Example 1-125, N-(5-(((2S,4R)-2-methyl-4-((6-((1-methylazetidin-3-yl)oxy)pyrimidin-4-yl)oxy)pyrrolidin-1-yl)methyl)thiazol-2-yl)acetamide]
20 | > 9.00 | 8.70 | – | – | – | CNc1cc(O[C@@H]2C[C@H](C)N(Cc3cnc(NC(C)=O)s3)C2)ncn1 [Example 1-137, N-(5-(((2S,4R)-2-methyl-4-((6-(methylamino)pyrimidin-4-yl)oxy)pyrrolidin-1-yl)methyl)thiazol-2-yl)acetamide]
21 | 9.00 | 8.15 | – | – | – | CC(=O)Nc1nc(F)c(CN2C[C@H](Oc3cc(OC4CN(C)C4)ncn3)C[C@@H]2C)s1 [Example 1-141, N-(4-fluoro-5-(((2S,4R)-2-methyl-4-((6-((1-methylazetidin-3-yl)oxy)pyrimidin-4-yl)oxy)pyrrolidin-1-yl)methyl)thiazol-2-yl)acetamide]
22 | 7.89 | 7.96 | – | – | – | [2H][C@]1(Oc2cc(OC)ncn2)C[C@H](C)N(Cc2sc(NC(C)=O)nc2F)C1 [Example 1-166, N-(4-fluoro-5-(((2S,4S)-4-((6-methoxypyrimidin-4-yl)oxy)-2-methylpyrrolidin-1-yl-4-d)methyl)thiazol-2-yl)acetamide]

Row | Structure (SMILES) | pIC50 [1] | pIC50 [2, 4] | efflux ratio at 2 h (P-gp (MDR1)) | RLM % Qh (%) [3] | pIC50 ([2]; repeated assay, value marked with asterisk (*))
23 | CC(=O)Nc1nc(F)c(CN2C[C@H](Oc3cc(C)ncc3C)C[C@@H]2C)s1 [Example 1-107, N-(5-(((2S,4R)-4-((2,5-dimethylpyridin-4-yl)oxy)-2-methylpyrrolidin-1-yl)methyl)-4-fluorothiazol-2-yl)acetamide] | 8.77 | – | 17.2 | 58% | –
24 | CC(=O)Nc1ncc(CN2C[C@H](Oc3cc(OC4CCC4)ncn3)C[C@@H]2C)s1 [Example 1-121, N-(5-(((2S,4R)-4-((6-cyclobutoxypyrimidin-4-yl)oxy)-2-methylpyrrolidin-1-yl)methyl)thiazol-2-yl)acetamide] | > 9.00 | 8.52 | – | – | –
